Assay results as given in publication PMC11861696, “The First K^+-Channel Blocker Described from Tityus fasciolatus Venom: The Purification, Molecular Cloning, and Functional Characterization of α-KTx4.9 (Tf5)” (Toxins, 2025).
Positions of bridges follow the written chain, without caps; N, C: chain ends. Residues, ends and D or L forms follow the SMILES beside them. No end group written: not given here.

Experiments:
Kv1.2 [1] = biological target: T1, Kv1.2 (Homo sapiens, UniProt P16389); conditions: cited from earlier work
T1 construct: expressed in transfected cells; host or cells: HEK293T

A549 carcinoma cell = tested on: A549 carcinoma cell; set-up: method as in PMID 21087602; conditions: cited from earlier work
Kv1.3 [2] = biological target: T2, Kv1.3 (Mus musculus, UniProt P16390); conditions: cited from earlier work
T2 construct: expressed in transfected cells; host or cells: L929

Kv1.3 [3] = biological target: T2, Kv1.3; test: whole-cell patch-clamp, K+ current of Kv1.3 in L929; type: cell-based
Experimental: (§1) Human Embrionary kidney HEK293T cells were grown in Dulbeccos’s Modified Eagle’s Medium (Sigma-Aldrich, St. Louis, MO, USA) supplemented with 10% fetal calf serum (GIBCO-ThermoFischer, Waltham, MA, USA) and 1% Antibiotic-Antimycotic® (GIBCO-ThermoFischer, Waltham, MA, USA). HEK293T cells were transfected with 1 μg of pcDNA3-Kv1.1, pcDNA3-Kv1.2, or pcDNA3-Kv1.4 and 0.1 μg of EGFP (Clontech Laboratories, Palo Alto, CA, USA) using Lipofectamine 3000 (ThermoFischer, Waltham, MA, USA). L929 cells expressing the Kv1.3 channel were grown in Dulbeccos’s Modified Eagle’s Medium (Sigma-Aldrich) supplemented with 10% fetal calf serum and 100 units/mL of penicillin and 10 µg/mL of streptomycin. Cells were grown in an incubator with a moist atmosphere and 5% CO2, at a constant temperature of 37 °C.
(§2) Potassium macrocurrents (IKs) were measured in whole-cell mode using a HEKA EPC 10 USB amplifier and controlled by PATCHMASTER software version 2x92 (HEKA Elektronik, Lambrecht, Germany). Experiments were performed at a room temperature of 23 °C. […]
(§3) The pipette (internal) solution contained (mM) KCl 140, MgCl2 2, CaCl2 1, EGTA 10, and HEPES 10, with a pH of 7.3 corrected with KOH and an experimental osmolarity of 337 mOsmol. […] The solutions’ osmolarity was measured with a K-7400S semi-micro osmometer (Knauer Berlin, Germany). […]

Kv1.2 [4] = biological target: T1, Kv1.2; test: whole-cell patch-clamp, K+ current of Kv1.2 in HEK293T; type: cell-based
Experimental: as §1, §2, §3

T2 sequence (P16390 whole entry): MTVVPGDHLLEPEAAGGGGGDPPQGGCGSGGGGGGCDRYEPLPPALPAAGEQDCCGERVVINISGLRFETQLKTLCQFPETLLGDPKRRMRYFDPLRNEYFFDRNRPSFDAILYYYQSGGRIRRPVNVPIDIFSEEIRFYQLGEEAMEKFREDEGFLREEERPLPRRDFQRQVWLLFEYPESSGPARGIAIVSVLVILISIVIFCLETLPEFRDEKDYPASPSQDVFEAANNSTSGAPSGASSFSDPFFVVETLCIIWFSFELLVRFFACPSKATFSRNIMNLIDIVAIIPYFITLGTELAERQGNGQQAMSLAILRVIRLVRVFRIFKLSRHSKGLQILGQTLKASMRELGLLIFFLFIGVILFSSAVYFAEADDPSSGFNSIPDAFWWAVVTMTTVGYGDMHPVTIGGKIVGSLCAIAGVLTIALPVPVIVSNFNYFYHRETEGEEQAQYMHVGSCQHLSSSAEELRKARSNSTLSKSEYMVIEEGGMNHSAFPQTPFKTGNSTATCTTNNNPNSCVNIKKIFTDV
T1 sequence (P16389 whole entry): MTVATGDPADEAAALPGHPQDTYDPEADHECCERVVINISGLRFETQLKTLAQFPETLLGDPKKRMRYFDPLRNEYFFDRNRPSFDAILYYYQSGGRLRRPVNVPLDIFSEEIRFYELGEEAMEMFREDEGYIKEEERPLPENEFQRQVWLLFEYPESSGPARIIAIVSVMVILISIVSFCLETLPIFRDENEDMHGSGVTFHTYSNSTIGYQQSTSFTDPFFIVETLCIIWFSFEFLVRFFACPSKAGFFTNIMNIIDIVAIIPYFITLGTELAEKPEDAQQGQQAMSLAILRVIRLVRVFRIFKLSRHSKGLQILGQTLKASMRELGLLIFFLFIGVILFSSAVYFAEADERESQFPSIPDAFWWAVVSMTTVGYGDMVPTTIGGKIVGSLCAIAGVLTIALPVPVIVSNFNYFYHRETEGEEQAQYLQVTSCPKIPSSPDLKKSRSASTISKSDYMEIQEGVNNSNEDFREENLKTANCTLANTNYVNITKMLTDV

Compound | block of Kv1.2 (Kv1.2 [1]) | viability of A549 carcinoma cell cultures (A549 carcinoma cell) | block of Kv1.3 (Kv1.3 [2]) | inhibition at 0.5 µM (Kv1.3 [3]; 500 nM Tf5, L929 cells expressing Kv1.3, whole-cell, stimulated at 30 mV over 200 ms from -80 mV, 23 °C, n = 7) [%] | IC50 (Kv1.3 [3]; dose–response curve, Figure 5F, n ≥5 for each concentration, read-out: Log IC50 Kv1.3 (converted)) [nM] | inhibition at 0.5 µM (Kv1.2 [4]; HEK-293T, 500 nM Tf5, HEK293T transfected with pcDNA3-Kv1.2, whole-cell, stimulated at 30 mV over 200 ms from -80 mV, 23 °C, n = 9) [%] | IC50 (Kv1.2 [4]; dose–response curve, Figure 5E, n ≥5 for each concentration, read-out: Log IC50 Kv1.2 (converted)) [nM]
MgTx: isolated from the scorpion Centruroides margaritatus, Kv1.2 and Kv1.3 blocker (TIINVKCTSPKQCLPPCKAQFGQSAGAKCMNGKCKCYPH; ends and bridges not checked; cysteine pairing not given here; UniProt P40755 1-39, looked up) | Kv1.2 and Kv1.3 blocker | reduce the viability | Kv1.2 and Kv1.3 blocker | – | – | – | –
CC[C@H](C)[C@@H]1NC(=O)[C@H](C)NC(=O)[C@H](CCC(=O)O)NC(=O)[C@H](CCCCN)NC(=O)[C@@H]2CSSC[C@@H](C(=O)N[C@@H](Cc3ccc(O)cc3)C(=O)N3CCC[C@H]3C(=O)O)NC(=O)[C@H](CCCCN)NC(=O)[C@@H]3CSSC[C@H](NC(=O)[C@H](CCC(=O)O)NC(=O)[C@@H]4CCCN4C(=O)[C@H](CO)NC(=O)CNC(=O)[C@H](CCCNC(=N)N)NC(=O)[C@@H](NC(=O)[C@H](CCCNC(=N)N)NC(=O)[C@H](C)NC(=O)[C@H](CC(N)=O)NC(=O)[C@@H](NC(=O)[C@H](Cc4ccccc4)NC(=O)[C@@H](N)C(C)C)[C@@H](C)CC)CSSC[C@H](NC(=O)[C@H](CCCCN)NC(=O)CNC(=O)[C@H](C)NC(=O)[C@H](CO)NC(=O)[C@H](CCCCN)NC(=O)CNC1=O)C(=O)N[C@@H](CCSC)C(=O)N[C@@H](CC(N)=O)C(=O)NCC(=O)N[C@@H](CCCCN)C(=O)N3)C(=O)N[C@@H](CC(C)C)C(=O)N1CCC[C@H]1C(=O)N[C@@H](CCCCN)C(=O)N2 [Tf5] (H-VFINARCRGSPECLPKCKEAIGKSAGKCMNGKCKCYP-OH; disulfide 7-28, 13-33, 17-35) | – | – | – | 81.8 ± 4.29 | 116 | 90.2 ± 3.78 | 15.5
